These results are taken from patent publication US9290511B2, “Thieno-pyrimidines, useful as potassium channel inhibitors” (XENTION LIMITED, priority 2011, dated 2016).

Structures are written as SMILES.

As a reminder, the IC50 is the concentration at which inhibition is half-maximal. Higher therefore signals weaker potency in that assay.

In the experiment the target is T1, Kir3.1/3.4 (Rattus norvegicus, UniProt P48548+P63251).
T1 construct: expressed in transfected cells
T1 sequence (P63251 1-501): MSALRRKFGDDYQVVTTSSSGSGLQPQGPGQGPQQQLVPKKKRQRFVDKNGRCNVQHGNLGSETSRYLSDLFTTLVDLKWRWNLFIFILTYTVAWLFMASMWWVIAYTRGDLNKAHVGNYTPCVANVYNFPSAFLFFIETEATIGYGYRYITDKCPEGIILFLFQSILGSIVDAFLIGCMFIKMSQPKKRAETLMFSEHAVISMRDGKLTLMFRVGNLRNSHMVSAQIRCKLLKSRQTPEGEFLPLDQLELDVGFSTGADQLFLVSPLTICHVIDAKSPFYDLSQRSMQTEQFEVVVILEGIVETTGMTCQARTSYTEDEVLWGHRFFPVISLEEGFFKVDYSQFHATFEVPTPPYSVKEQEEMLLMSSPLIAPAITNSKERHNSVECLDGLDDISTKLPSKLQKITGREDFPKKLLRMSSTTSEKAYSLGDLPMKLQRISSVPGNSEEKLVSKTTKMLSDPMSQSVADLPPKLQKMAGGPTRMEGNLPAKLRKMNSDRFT
T1 sequence (P48548 1-419): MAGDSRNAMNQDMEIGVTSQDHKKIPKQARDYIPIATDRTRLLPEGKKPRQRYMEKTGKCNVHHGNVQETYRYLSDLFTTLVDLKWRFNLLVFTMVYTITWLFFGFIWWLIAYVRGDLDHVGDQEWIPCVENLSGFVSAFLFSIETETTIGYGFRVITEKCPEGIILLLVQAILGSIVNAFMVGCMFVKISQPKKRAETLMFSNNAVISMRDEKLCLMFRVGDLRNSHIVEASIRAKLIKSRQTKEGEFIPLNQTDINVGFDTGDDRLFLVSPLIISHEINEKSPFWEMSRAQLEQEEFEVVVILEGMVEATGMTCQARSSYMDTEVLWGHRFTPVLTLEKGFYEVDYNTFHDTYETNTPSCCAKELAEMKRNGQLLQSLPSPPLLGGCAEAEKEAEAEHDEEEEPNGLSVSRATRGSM
Nature of the experiment: Kir3.1/3.4 Electrophysiology Method (manual whole-cell patch clamp). To be noted: Electrophysiology Method (TABLE 1). It is filed as cell-based. The essentials: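 Percent inhibition is relative to the pre-drug current, both leak-subtracted using a potassium-free bather, taken as the mean current at −140 mV. The protocol was a step to +60 mV, a ramp to −140 mV, then a return to −60 mV holding, every 10 s. Cells were rat Kir3.1/3.4-transfected HEK293 recorded by whole-cell patch clamp.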
For orientation: In patch-clamp work, channel activity is measured electrically.

`CC(C)(CNCC1CCN(c2ncnc3scc(-c4ccccc4)c23)CC1)N1CCOCC1` [Example 59, 2-methyl-2-morpholino-N-[[1-(5-phenylthieno[2,3-d]pyrimidin-4-yl)-4-piperidyl]methyl]propan-1-amine] displayed an IC50 below 500 nM.
For `c1ccc(-c2csc3ncnc(N4CC5CC4CC5OCCN4CCCC4)c23)cc1` (centres unmarked) [Example 284] the value was below 500 nM; for `CC(=O)N1CCN(CCOCC2CCN(c3ncnc4scc(-c5ccccc5)c34)CC2)CC1` [Example 261], below 500 nM; for `c1ccc(-c2csc3ncnc(N4CCC(OCCCN5CCCC5)CC4)c23)cc1` [Example 296], below 500 nM.
In the case of `CC(C)NCC1CC2CCC(C1)N2c1ncnc2scc(-c3ccccc3)c12` (centres unmarked) [Example 334], the concentration for half-maximal inhibition (IC50) is below 500 nM.
Compound `CC(=O)N(C)C1CCN(c2nc(N3CCC(CN(C)C4CCN(C)C4)CC3)c3c(-c4ccccc4)csc3n2)CC1` (centres unmarked) [Example 241] yielded a 50% inhibitory concentration (IC50) below 500 nM.
The compound `CC(C)NC(=O)c1sc2ncnc(N3CCC(COCCN4CCCC4)CC3)c2c1C(C)C` [Example 264] displayed an IC50 of 500 to 3000 nM.
Compound `OCC1CC2CCC(C1)N2c1nc(N2CCOCC2)c2c(-c3ccccc3)csc2n1` (centres unmarked) [Example 165, [8-(4-morpholino-5-phenyl-thieno[2,3-d]pyrimidin-2-yl)-8-azabicyclo[3.2.1]octan-3-yl]methanol] yielded an IC50 of 500 to 3000 nM.
`CC(C)c1c(C(=O)N(C)C)sc2ncnc(N3CCC(COCCN4CCCC4)CC3)c12` [Example 133] displayed an IC50 of 500 to 3000 nM.
Under `CC(C)C(=O)Nc1sc2nc(N3CCC(COCCN4CCCC4)CC3)ncc2c1-c1ccccc1` [Example 304] stands below 500 nM.
Compound `CN1CCCCC1CCOCC1CCN(c2ncnc3scc(-c4cccc(F)c4)c23)CC1` (centres unmarked) [Example 36, 5-(3-fluorophenyl)-4-[4-[2-(1-methyl-2-piperidyl)ethoxymethyl]-1-piperidyl]thieno[2,3-d]pyrimidine] gave an IC50 below 500 nM.
On to `c1nc(N2CCC(COCCN3CCCC3)CC2)c2c(-c3ccsc3)csc2n1` [Example 317], for which the IC50 is below 500 nM.
Compound `NCCNCC1CCN(c2ncnc3scc(-c4ccccc4)c23)CC1` [Example 63, N′-[[1-(5-phenylthieno[2,3-d]pyrimidin-4-yl)-4-piperidyl]methyl]ethane-1,2-diamine] gave an IC50 below 500 nM.
As for `CN1CCC(N(C)CC2CCN(c3nc(N(C)CC(N)=O)nc4scc(-c5ccccc5)c34)CC2)C1` (centres unmarked) [Example 121], the IC50 was below 500 nM.
Under `CC(=O)Nc1sc2ncnc(N3CCC(COCCN4CCCC4)CC3)c2c1-c1ccccc1` [Example 162, N-[5-phenyl-4-[4-(2-pyrrolidin-1-ylethoxymethyl)-1-piperidyl]thieno[2,3-d]pyrimidin-6-yl]acetamide] stands below 500 nM; under `CN(C)CCCNCC1CCN(c2ncnc3scc(-c4ccccc4)c23)CC1` [Example 217], below 500 nM.
As to `CC(=O)NC1CCN(CC2CCN(c3ncnc4scc(-c5ccccc5)c34)CC2)C1` (centres unmarked) [Example 253], the IC50 is below 500 nM.
For `COCC1CCN(c2nc(N(CCO)CCN3CCCC3)nc3scc(-c4ccccc4)c23)CC1` [Example 185] the value was below 500 nM; for `COCC1CCN(c2nc(CC(=O)NCCN3CCCC3)nc3scc(-c4ccccc4)c23)CC1` [Example 182], below 500 nM; for `O=C1CN(CCOCC2CCN(c3ncnc4scc(-c5ccccc5)c34)CC2)CCN1` [Example 28, 4-[2-[[1-(5-phenylthieno[2,3-d]pyrimidin-4-yl)-4-piperidyl]methoxy]ethyl]piperazin-2-one], 500 to 3000 nM.
With `COc1ccccc1-c1csc2ncnc(N3C4CCC3CC(CNC3CCC3)C4)c12` (centres unmarked) [Example 367], the IC50 is below 500 nM.
Compound `NC(=O)C1CCN(CCOC2CC3CC2CN3c2ncnc3scc(-c4ccccc4)c23)C1` (centres unmarked) [Example 290] had an IC50 below 500 nM.
`CN(CC1CCN(c2ncnc3scc(-c4ccccc4)c23)CC1)CC1CCCN1` (centres unmarked) [Example 83, N-methyl-1-[1-(5-phenylthieno[2,3-d]pyrimidin-4-yl)-4-piperidyl]-N-(pyrrolidin-2-ylmethyl)methanamine] returned an IC50 below 500 nM.
Under `c1ccc(-c2csc3ncnc(N4CC(COCCN5CCCC5)C4)c23)cc1` [Example 273] stands 500 to 3000 nM.
For the compound `N#Cc1sc2ncnc(N3CCC(COCCN4CCCC4)CC3)c2c1-c1ccccc1` [Example 167, 5-phenyl-4-[4-(2-pyrrolidin-1-ylethoxymethyl)-1-piperidyl]thieno[2,3-d]pyrimidine-6-carbonitrile], the IC50 was below 500 nM.
Turning to `COCC1CC2CCC(C1)N2c1nc(N2CCOCC2)c2c(-c3ccccc3)csc2n1` (centres unmarked) [Example 300], the IC50 lay within 500 to 3000 nM.
In the case of `O=C(NCCN1CCOCC1)C1CCCN(c2ncnc3scc(-c4ccccc4)c23)C1` (centres unmarked) [Example 285], the IC50 is 500 to 3000 nM.
`OCC(Cc1ccccc1)NCC1CCN(c2ncnc3scc(-c4ccccc4)c23)CC1` (centres unmarked) [Example 57, 3-phenyl-2-[[1-(5-phenylthieno[2,3-d]pyrimidin-4-yl)-4-piperidyl]methylamino]propan-1-ol] yielded an IC50 below 500 nM.
For `CN1CCN(c2nc(N3CCC(CNC4(CO)CCCC4)CC3)c3c(-c4ccccc4)csc3n2)CC1` [Example 113], the IC50 lay in the range of 500 to 3000 nM.
In turn, `CC(C)NCC1CCN(c2ncnc3scc(C4CCCCC4)c23)CC1` [Example 196] showed an IC50 below 500 nM.
For the compound `CC1CCN(CC2CC(c3ccccc3)N(c3ncnc4scc(-c5ccccc5)c34)C2)C1` (centres unmarked) [Example 198], the IC50 is below 500 nM.
With `CC(C)N1CCCC1CCN(C)CC1CCN(c2ncnc3scc(-c4ccccc4)c23)CC1` (centres unmarked) [Example 88, 2-(1-isopropylpyrrolidin-2-yl)-N-methyl-N-[[1-(5-phenylthieno[2,3-d]pyrimidin-4-yl)-4-piperidyl]methyl]ethanamine], the IC50 is below 500 nM.
The compound `CN1CCCC1COCC1CCN(c2ncnc3scc(-c4ccccc4)c23)CC1` (centres unmarked) [Example 7, 4-[4-[(1-methylpyrrolidin-2-yl)methoxymethyl]-1-piperidyl]-5-phenyl-thieno[2,3-d]pyrimidine] registered a half-inhibitory concentration (IC50) below 500 nM.
For `CC(C)N(CCNCC1CCN(c2ncnc3scc(-c4ccccc4)c23)CC1)C(C)C` [Example 62, N′,N′-diisopropyl-N-[[1-(5-phenylthieno[2,3-d]pyrimidin-4-yl)-4-piperidyl]methyl]ethane-1,2-diamine] the value was below 500 nM.
`CN1CCC(N(C)CC2CCN(c3nc(NCC4CC4)nc4scc(-c5ccccc5)c34)CC2)C1` (centres unmarked) [Example 119] displayed an IC50 below 500 nM.
For `O=C(Cc1nc(N2CCCC2c2ccccc2)c2c(-c3ccc(F)cc3)csc2n1)NCCN1CCCC1` (centres unmarked) [Example 199] the value was below 500 nM.
For the compound `CN1CCC(N(C)CC2CCN(c3nc(N4CCCCC4C(N)=O)nc4scc(-c5ccccc5)c34)CC2)C1` (centres unmarked) [Example 129], the IC50 was in the range of 500 to 3000 nM.
Under `CN1CCCC1CNCC1CCN(c2ncnc3scc(-c4ccccc4)c23)CC1` (centres unmarked) [Example 84, N-[(1-methylpyrrolidin-2-yl)methyl]-1-[1-(5-phenylthieno[2,3-d]pyrimidin-4-yl)-4-piperidyl]methanamine] stands below 500 nM; under `OCCN(CCO)CC1CCN(c2ncnc3scc(C4CCCCC4)c23)CC1` [Example 201], below 500 nM; under `OCCN(CCO)CC1CCN(c2ncnc3scc(-c4ccccc4)c23)CC1` [Example 186], 500 to 3000 nM.
For `NC(=O)C1CCN(c2nc(N3CCC(COCCN4CCCC4)CC3)nc3scc(-c4ccccc4)c23)C1` (centres unmarked) [Example 274] the value was below 500 nM; for `COCCN(CCOC)CC1CCN(c2ncnc3scc(-c4ccccc4)c23)CC1` [Example 53, 2-methoxy-N-(2-methoxyethyl)-N-[[1-(5-phenylthieno[2,3-d]pyrimidin-4-yl)-4-piperidyl]methyl]ethanamine], below 500 nM; for `c1ccc(-c2csc3ncnc(N4CCC(CNC5CCC5)CC4)c23)cc1` [Example 64, N-[[1-(5-phenylthieno[2,3-d]pyrimidin-4-yl)-4-piperidyl]methyl]cyclobutanamine], below 500 nM.
`c1ccc(-c2csc3ncnc(N4C5CCC4CC(COCCN4CCCC4)C5)c23)cc1` (centres unmarked) [Example 286] yielded an IC50 below 500 nM.
With `CN(CC1CCN(c2ncnc3scc(-c4ccccc4)c23)CC1)C1CCOC1` (centres unmarked) [Example 203], the IC50 fell in the range of 500 to 3000 nM.
For the compound `CC(C)NC(=O)c1sc2ncnc(N3C4CCC3CC(COCCN3CCCC3)C4)c2c1-c1ccccc1` (centres unmarked) [Example 357], the IC50 is below 500 nM.
Consider `COCCN1CCN(c2nc(N3CCC(CN(C)C4CCN(C)C4)CC3)c3c(-c4ccccc4)csc3n2)CC1` (centres unmarked) [Example 122], for which the IC50 was below 500 nM.
